Measured values from PubChem BioAssay AID1963843 (Molecular Pharmacology Branch, DTP, NCI, 2024).

Tested on: 616215-338-R-J1-PDC complex spheroid viability
Test: Anticancer human tumor 616215-338-R-J1-PDC patient-derived colon adenocarcinoma cell line growth inhibition [POLQ]
Conditions: for IC50: curve of first compound; for viability, T/C: stronger effect = lower value
Summary of the method: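 PDC + HUVEC + MSC complex spheroids; POLQ inhibitors ± partner drugs; top conc. at/near clinical Cmax, else 10 microM (SN-38 1 microM), half-log dilutions; 37 degrees C, 5% CO2.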

[1] = second compound 0.0316 µM, first compound 0.000316 µM
[2] = second compound 0.0316 µM, first compound 0.001 µM
[3] = second compound 0.0316 µM, first compound 0.00316 µM
[4] = second compound 0.0316 µM, first compound 0.01 µM
[5] = second compound 0.0316 µM, first compound 0.0316 µM
[6] = second compound 0.0316 µM, first compound 0.1 µM
[7] = second compound 0.1 µM, first compound 0.000316 µM
[8] = second compound 0.1 µM, first compound 0.001 µM
[9] = second compound 0.1 µM, first compound 0.00316 µM
[10] = second compound 0.1 µM, first compound 0.01 µM
[11] = second compound 0.1 µM, first compound 0.0316 µM
[12] = second compound 0.1 µM, first compound 0.1 µM
[13] = second compound 0.316 µM, first compound 0.000316 µM
[14] = second compound 0.316 µM, first compound 0.001 µM
[15] = second compound 0.316 µM, first compound 0.00316 µM
[16] = second compound 0.316 µM, first compound 0.01 µM
[17] = second compound 0.316 µM, first compound 0.0316 µM
[18] = second compound 0.316 µM, first compound 0.1 µM
[19] = second compound 1 µM, first compound 0.000316 µM
[20] = second compound 1 µM, first compound 0.001 µM
[21] = second compound 1 µM, first compound 0.00316 µM
[22] = second compound 1 µM, first compound 0.01 µM
[23] = second compound 1 µM, first compound 0.0316 µM
[24] = second compound 1 µM, first compound 0.1 µM
[25] = second compound 3.16 µM, first compound 0.000316 µM
[26] = second compound 3.16 µM, first compound 0.001 µM
[27] = second compound 3.16 µM, first compound 0.00316 µM
[28] = second compound 3.16 µM, first compound 0.01 µM
[29] = second compound 3.16 µM, first compound 0.0316 µM
[30] = second compound 3.16 µM, first compound 0.1 µM
[31] = second compound 10 µM, first compound 0.000316 µM
[32] = second compound 10 µM, first compound 0.001 µM
[33] = second compound 10 µM, first compound 0.00316 µM
[34] = second compound 10 µM, first compound 0.01 µM
[35] = second compound 10 µM, first compound 0.0316 µM
[36] = second compound 10 µM, first compound 0.1 µM
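Also: spheroids exposed to compounds for one week before readout.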
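For viability, T/C in this document: percent viability relative to DMSO vehicle wells taken as 100%.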

For CC[C@@]1(O)C(=O)OCc2c1cc1n(c2=O)Cc2cc3c(CN(C)C)c(O)ccc3nc2-1 + Cc1cccc(N(C)C(=O)C2C(O)CCN2c2nc(C)cc(C(F)(F)F)c2C#N)c1, the IC50 (second compound 0.0316 µM) was greater than 0.1 µM, the IC50 (second compound 0.1 µM) was greater than 0.1 µM and the IC50 (second compound 0.316 µM) was greater than 0.1 µM. It also gave an IC50 (second compound 1 µM) greater than 0.1 µM, an IC50 (second compound 3.16 µM) greater than 0.1 µM and an IC50 (second compound 10 µM) greater than 0.1 µM. For the same compound, the viability, T/C [1] was 96.5%, the viability, T/C [2] was 100% and the viability, T/C [3] was 97.7%. It also gave a viability, T/C [4] of 101%, a viability, T/C [5] of 105% and a viability, T/C [6] of 82.5%. It also gave a viability, T/C [7] of 99.2%, a viability, T/C [8] of 101% and a viability, T/C [9] of 101%. The viability, T/C [10] was 116%, the viability, T/C [11] was 107% and the viability, T/C [12] was 79.6%. The viability, T/C [13] was 114%, the viability, T/C [14] was 104% and the viability, T/C [15] was 92.3%. For the same compound, the viability, T/C [16] was 114%, the viability, T/C [17] was 96.7% and the viability, T/C [18] was 84.3%. For the same compound, the viability, T/C [19] was 101%, the viability, T/C [20] was 93.5% and the viability, T/C [21] was 112%. The viability, T/C [22] was 112%, the viability, T/C [23] was 103% and the viability, T/C [24] was 77.2%. It also gave a viability, T/C [25] of 101%, a viability, T/C [26] of 94.2% and a viability, T/C [27] of 93.2%. It also gave a viability, T/C [28] of 101%, a viability, T/C [29] of 103% and a viability, T/C [30] of 78.8%. For the same compound, the viability, T/C [31] was 100%, the viability, T/C [32] was 98.9% and the viability, T/C [33] was 95.3%. It also gave a viability, T/C [34] of 103%, a viability, T/C [35] of 97.8% and a viability, T/C [36] of 64.4%.

In the case of Cn1ncnc1[C@H]1c2n[nH]c(=O)c3cc(F)cc(c23)N[C@@H]1c1ccc(F)cc1 + Cc1cccc(N(C)C(=O)C2C(O)CCN2c2nc(C)cc(C(F)(F)F)c2C#N)c1, the IC50 (second compound 0.0316 µM) is reported as greater than 0.1 µM, the IC50 (second compound 0.1 µM) is reported as greater than 0.1 µM and the IC50 (second compound 0.316 µM) is reported as greater than 0.1 µM. The IC50 (second compound 1 µM) was greater than 0.1 µM, the IC50 (second compound 3.16 µM) was greater than 0.1 µM and the IC50 (second compound 10 µM) was greater than 0.1 µM. The viability, T/C [1] was 106%, the viability, T/C [2] was 87.5% and the viability, T/C [3] was 92.1%. For the same compound, the viability, T/C [4] was 102%, the viability, T/C [5] was 105% and the viability, T/C [6] was 99.3%. It also gave a viability, T/C [7] of 108%, a viability, T/C [8] of 99.5% and a viability, T/C [9] of 101%. It also gave a viability, T/C [10] of 105%, a viability, T/C [11] of 108% and a viability, T/C [12] of 108%. It also gave a viability, T/C [13] of 104%, a viability, T/C [14] of 104% and a viability, T/C [15] of 109%. The viability, T/C [16] was 105%, the viability, T/C [17] was 110% and the viability, T/C [18] was 97.3%. The viability, T/C [19] was 101%, the viability, T/C [20] was 101% and the viability, T/C [21] was 111%. It also gave a viability, T/C [22] of 106%, a viability, T/C [23] of 115% and a viability, T/C [24] of 104%. It also gave a viability, T/C [25] of 116%, a viability, T/C [26] of 106% and a viability, T/C [27] of 101%. It also gave a viability, T/C [28] of 109%, a viability, T/C [29] of 104% and a viability, T/C [30] of 97.1%. It also gave a viability, T/C [31] of 106%, a viability, T/C [32] of 107% and a viability, T/C [33] of 111%. For the same compound, the viability, T/C [34] was 102%, the viability, T/C [35] was 99.1% and the viability, T/C [36] was 98.6%.

In the case of CC1COCCN1c1cc(C2(S(C)(=N)=O)CC2)nc(-c2ccnc3[nH]ccc23)n1 (stereo unspecified) + Nc1ccc(C#CCN(C(=O)Cc2ncc(C(F)(F)F)cc2C(F)(F)F)c2ccc(F)cc2)nn1, the IC50 (second compound 0.0316 µM) is reported as 4.98 µM, the IC50 (second compound 0.1 µM) is reported as 5.39 µM and the IC50 (second compound 0.316 µM) is reported as 6.77 µM. The IC50 (second compound 1 µM) was 5.38 µM, the IC50 (second compound 3.16 µM) was 6.99 µM and the IC50 (second compound 10 µM) was 2.88 µM. The viability, T/C [5] was 115%, the viability, T/C [6] was 96.5% and the viability, T/C (second compound 0.0316 µM, first compound 0.316 µM) was 93%. For the same compound, the viability, T/C (second compound 0.0316 µM, first compound 1 µM) was 93.4%, the viability, T/C (second compound 0.0316 µM, first compound 3.16 µM) was 56.9% and the viability, T/C (second compound 0.0316 µM, first compound 10 µM) was 32.6%. For the same compound, the viability, T/C [11] was 93.9%, the viability, T/C [12] was 104% and the viability, T/C (second compound 0.1 µM, first compound 0.316 µM) was 94.3%. The viability, T/C (second compound 0.1 µM, first compound 1 µM) was 94.7%, the viability, T/C (second compound 0.1 µM, first compound 3.16 µM) was 63.1% and the viability, T/C (second compound 0.1 µM, first compound 10 µM) was 34.7%. The viability, T/C [17] was 101%, the viability, T/C [18] was 97.6% and the viability, T/C (second compound 0.316 µM, first compound 0.316 µM) was 93.8%. The viability, T/C (second compound 0.316 µM, first compound 1 µM) was 97.3%, the viability, T/C (second compound 0.316 µM, first compound 3.16 µM) was 62.3% and the viability, T/C (second compound 0.316 µM, first compound 10 µM) was 43.7%. It also gave a viability, T/C [23] of 108%, a viability, T/C [24] of 101% and a viability, T/C (second compound 1 µM, first compound 0.316 µM) of 90.9%. It also gave a viability, T/C (second compound 1 µM, first compound 1 µM) of 84.7%, a viability, T/C (second compound 1 µM, first compound 3.16 µM) of 59.9% and a viability, T/C (second compound 1 µM, first compound 10 µM) of 36.5%. The viability, T/C [29] was 87.5%, the viability, T/C [30] was 95.3% and the viability, T/C (second compound 3.16 µM, first compound 0.316 µM) was 87.4%. For the same compound, the viability, T/C (second compound 3.16 µM, first compound 1 µM) was 83%, the viability, T/C (second compound 3.16 µM, first compound 3.16 µM) was 68.8% and the viability, T/C (second compound 3.16 µM, first compound 10 µM) was 41.6%. The viability, T/C [35] was 96.5%, the viability, T/C [36] was 91.5% and the viability, T/C (second compound 10 µM, first compound 0.316 µM) was 78.2%. The viability, T/C (second compound 10 µM, first compound 1 µM) was 92.1%, the viability, T/C (second compound 10 µM, first compound 3.16 µM) was 46.5% and the viability, T/C (second compound 10 µM, first compound 10 µM) was 35.5%.
